The target of data set [1] is glutamine synthetase (GS) (Mus musculus, UniProt P15105). Particulars: GLUD1-deficient BMDMs, glutamine deprivation, 1 mM MSO for 48 hours.
Procedure: o: Quantification (by GC-MS) of extracellular glutamine content from BMDMs under glutamine deprivation treated with and without MSO.
Briefly, bone marrow cells (1.6×10^6 cells/ml) were cultured in a volume of 6 ml in a 10 cm Petri dish in DMEM supplemented with 20% FBS and 30% L929 conditioned medium as a source of M-CSF. After 3 days of culture, an additional 3 ml of differentiation medium was added. At day 7, macrophages were harvested with ice cold Ca2^+ and Mg2^+-free PBS. The cells obtained were uniformly macrophages as assessed by FACS, using the pan-macrophage marker F4/80.
For mass spectrometry analysis of glutamate and glutamine, 2×10^6 cell pellets were washed twice in PBS and extracted in 500 μl of 80% methanol (80-20, methanol-water). Upon extraction, samples were centrifuged at 20.000×g for 15 min and the supernatant was dried using a vacuum centrifuge. Twenty-five μl of a 2% methoxyamine hydrochloride solution (20 mg dissolved in 1 ml pyridine) were added to the dried pellet and the tubes were then placed at 37° C. for 90 min. […] The mass spectrometer operated in SIM mode, glutamine and glutamate were determined from the m/z 341.2 and 342.2 respectively. For the quantification we used the Agilent Masshunter Quan tool.
Data set [2] concerns the target T1, glutamine transporter SLC1A5 (Mus musculus, UniProt P51912).
T1 sequence (P51912 1-553): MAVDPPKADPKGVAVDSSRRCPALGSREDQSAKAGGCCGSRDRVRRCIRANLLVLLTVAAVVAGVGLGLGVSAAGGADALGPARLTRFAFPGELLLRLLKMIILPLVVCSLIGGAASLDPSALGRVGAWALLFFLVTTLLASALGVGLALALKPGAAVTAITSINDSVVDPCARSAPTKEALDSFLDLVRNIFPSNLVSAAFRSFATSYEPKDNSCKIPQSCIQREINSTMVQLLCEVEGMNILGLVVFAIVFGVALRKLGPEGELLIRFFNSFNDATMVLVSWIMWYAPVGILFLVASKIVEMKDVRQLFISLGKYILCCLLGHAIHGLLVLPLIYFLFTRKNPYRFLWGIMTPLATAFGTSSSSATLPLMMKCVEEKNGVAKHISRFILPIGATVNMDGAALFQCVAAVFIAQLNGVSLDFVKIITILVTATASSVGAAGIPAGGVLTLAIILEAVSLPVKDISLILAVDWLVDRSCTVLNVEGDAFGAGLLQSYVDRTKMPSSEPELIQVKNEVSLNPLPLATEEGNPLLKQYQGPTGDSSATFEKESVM
In words: [U-14C]-glutamine uptake in C2C12 cells. Also on record: endogenous in cells; host or cells: C2C12 myoblast cell line. Format: cell-based, murine. The method, then:
e: [U-^14C]-glutamine uptake in SLC1A5-deficient C2C12 cells obtained by co-expressing the Cas9 along with a gRNA targeting the Slc1a5 locus. Wild type cells (Ctrl) and a non-targeting scrambled (Scrl) gRNA were used as negative controls. C2C12 cells treated with SLC1A5 inhibitor gamma-L-Glutamyl-p-Nitroanilide (GPNA) was used as a positive control.
BMDMs were incubated in M199 medium (Gibco) supplemented with 10% FBS and 0.5 μCi/ml [U-^14C]-glutamine for 30 min at 37° C. Cells were lysed in 1N NaOH and the radioactivity was measured by liquid scintillation counting.

Data set [3] concerns the target T1, glutamine transporter SLC1A5. In words: CTX muscle injury with SLC1A5 inhibition by GPNA, proliferating muscle precursors. Format: in vivo, mice. Also on record: from tissue; host or cells: living CTRL and Glud1 ΔMo mice (C57BL/6); read-out in tibialis anterior muscle. Particulars: Glud1ΔMo TA muscles 1 day after CTX injury; GPNA 3 times per day, oral, vs vehicle. The method, then: m: Quantification of proliferating muscle precursors on sections of TA muscles 1 day after CTX injury, stained for PHH3 and laminin. CTRL and Glud1^ΔM0 mice were treated 3 times per day with the SLC1A5 inhibitor GPNA, or vehicle as control. Number of samples included in the analysis: CTRL with vehicle, n=5; Glud1^ΔMo with vehicle, n=5; CTRL with GPNA, n=8; Glud1^ΔMo with GPNA, n=8.
(§1) Mice were anaesthetized with isoflurane and 50 μl of 10 μM CTX was injected in the tibialis anterior (TA) muscle. Muscles were harvested for analysis at different time points post-injury (day 1 and day 6). In vivo GLUD1 inhibition was achieved by bi-daily gavage of R162 (Focus Biomolecules) at 0.6 mg/mouse. Mice were pretreated 1 day before CTX injection or ischemic ligation. Afterwards, mice continued to receive daily treatment until their sacrifice. To inhibit SLC1A5, mice were treated 3 times per day with 500 mM GPNA (Sigma-Aldrich). […]
(§2) 7 μm-thick cryosections were obtained by using a Leica cryostat from frozen muscles collected in optimal cutting temperature compound (OCT). […] Necrotic and regenerating muscle fibers, were detected by H&E staining as previously described (Takeda et al. 2011, Nature 479:122-126) and analysed by ImageJ software. […] Whenever sections were stained in fluorescence, ProLong Gold mounting medium with or without DAPI (Invitrogen) was used. […]

Data set [4] addresses T2, GLUD1 (Mus musculus, UniProt P26443).
T2 construct: from tissue; host or cells: living C57BL/6 wild-type mice; systemic exposure, read-out in tibialis anterior / crural muscle
In words: Cardiotoxin (CTX) muscle injury of tibialis anterior, R162 by bi-daily gavage. Format: in vivo. Particulars: wild type mice. The source says: a-c: Quantification of regenerating fibers (a) and intact differentiated fibers (b) on H&E-stained sections (c) from TA muscles 6 days after CTX injury. Wild type mice were bi-daily treated with R162, or vehicle as control.
d-e: Quantification (d) and representative images (e) of F4/80^+ area in TA muscles, 6 days after CTX injury. Wild type mice were bi-daily treated with R162, or vehicle as control.
f-g: Quantification (f) and representative images (g) of proliferating muscle precursors on sections of TA muscles 1 day after CTX injury, stained for PHH3 and laminin. Wild type mice were bi-daily treated with R162, or vehicle as control.
Mice were anaesthetized with isoflurane and 50 μl of 10 μM CTX was injected in the tibialis anterior (TA) muscle. Muscles were harvested for analysis at different time points post-injury (day 1 and day 6). In vivo GLUD1 inhibition was achieved by bi-daily gavage of R162 (Focus Biomolecules) at 0.6 mg/mouse. Mice were pretreated 1 day before CTX injection or ischemic ligation. Afterwards, mice continued to receive daily treatment until their sacrifice. To inhibit SLC1A5, mice were treated 3 times per day with 500 mM GPNA (Sigma-Aldrich). CTX was injected 1 hour after the first gavage, and mice were sacrificed 24 hours afterwards.
7 μm-thick cryosections were obtained by using a Leica cryostat from frozen muscles collected in optimal cutting temperature compound (OCT). Alternatively, tibialis anterior and calf muscles (gastrocnemius) were fixed in 2% paraformaldehyde, dehydrated, embedded in paraffin, and sectioned at 7 μm thickness. Necrotic and regenerating muscle fibers, were detected by H&E staining as previously described (Takeda et al. 2011, Nature 479:122-126) and analysed by ImageJ software. After deparaffinization and rehydration, muscle sections were permeabilized by a solution containing 1% BSA, 0.2% Triton-X in PBS 30 min at RT and blocked with Donkey serum (Sigma)1 h at RT. […] Whenever sections were stained in fluorescence, ProLong Gold mounting medium with or without DAPI (Invitrogen) was used. […]

Data set [5] concerns the target T2, GLUD1. Put plainly: Hindlimb ischemia (femoral artery ligation), R162 by bi-daily gavage. Particulars: crural muscles 14 days after ligation; wild type mice; bi-daily R162 vs vehicle. Format: in vivo. The method, then: h-j: Quantification of the necrotic area (h) and intact differentiated fibers (i) on H&E-stained sections (j) from crural muscles 14 days after ligation. Wild type mice were bi-daily treated with R162, or vehicle as control.
k-l: Quantification (k) and representative images (l) of F4/80^+ area in crural muscles, 14 days after ligation. Wild type mice were bi-daily treated with R162, or vehicle as control.
as §1, §2

For data set [6], the system named is GLUD1. Particulars: cited from earlier work.

T2 sequence (P26443 54-558): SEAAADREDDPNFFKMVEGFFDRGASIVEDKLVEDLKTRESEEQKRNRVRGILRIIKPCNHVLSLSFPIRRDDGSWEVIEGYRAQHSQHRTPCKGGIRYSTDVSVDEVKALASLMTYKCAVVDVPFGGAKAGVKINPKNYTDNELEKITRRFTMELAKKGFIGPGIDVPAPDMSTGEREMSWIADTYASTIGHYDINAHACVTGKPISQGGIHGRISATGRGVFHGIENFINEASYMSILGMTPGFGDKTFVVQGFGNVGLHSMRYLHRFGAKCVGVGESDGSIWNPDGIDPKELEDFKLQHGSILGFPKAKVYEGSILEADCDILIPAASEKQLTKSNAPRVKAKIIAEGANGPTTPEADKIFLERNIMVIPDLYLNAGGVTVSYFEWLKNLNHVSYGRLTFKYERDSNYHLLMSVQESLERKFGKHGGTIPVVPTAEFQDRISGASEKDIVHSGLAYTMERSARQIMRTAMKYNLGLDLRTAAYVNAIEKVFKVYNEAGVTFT
Chain of glutamine synthetase (GS) (P15105 2-373 limits assumed): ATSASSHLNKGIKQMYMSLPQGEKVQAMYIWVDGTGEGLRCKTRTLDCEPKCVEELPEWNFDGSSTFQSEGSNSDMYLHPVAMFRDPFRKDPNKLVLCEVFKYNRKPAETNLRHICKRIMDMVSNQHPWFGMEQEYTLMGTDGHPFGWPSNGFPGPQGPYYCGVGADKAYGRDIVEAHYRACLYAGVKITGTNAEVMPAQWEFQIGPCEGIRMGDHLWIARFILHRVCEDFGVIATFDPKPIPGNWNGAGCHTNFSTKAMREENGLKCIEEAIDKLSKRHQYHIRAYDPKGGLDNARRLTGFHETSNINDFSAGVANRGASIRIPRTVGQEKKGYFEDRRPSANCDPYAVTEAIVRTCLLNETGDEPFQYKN

`CS(=N)(=O)CC[C@H](N)C(=O)O` (stereo partly drawn) [MSO, L-methionine-SR-sulfoximine]: in data set [1], the extracellular glutamine production result is “rescued back to the CTRL levels”.

As to `N[C@@H](CCC(=O)Nc1ccc([N+](=O)[O-])cc1)C(=O)O` [GPNA, gamma-L-Glutamyl-p-Nitroanilide], the “block of glutamine uptake” value in data set [2] is 75%. In data set [3], the “abundance of proliferating myogenic precursors (PHH3, laminin)” value is on record as “abolished the abundance of proliferating myogenic precursors”.

Regarding `C=CCc1ccc2c(c1O)C(=O)c1ccccc1C2=O` [R162, 2-allyl-1-hydroxy-9,10-anthraquinone], the “increase in the number of PHH3+ cells (proliferating muscle precursors) upon damage” value in data set [4] (TA muscles 1 day after CTX injury, bi-daily oral gavage of R162 vs vehicle) worked out at 60%. In addition, the “quality of the muscle (regenerating fibers and intact differentiated fibers on H&E-stained sections)” value in data set [4] (TA muscles 6 days after CTX injury, bi-daily oral gavage of R162 0.6 mg/mouse vs vehicle) is listed as “strongly improved the quality of the muscle”. In data set [4] (TA muscles 6 days after CTX injury, bi-daily oral gavage of R162 vs vehicle), the “inflammation (F4/80+ area)” value is recorded as “reduced inflammation”. Besides, in data set [5], the “inflammatory response (F4/80+ area)” value is “resolution of the inflammatory response”; the “repair of the necrotic damage (necrotic area and intact differentiated fibers on H&E-stained sections)” value is “improved repair of the necrotic damage”. In data set [6] (Jin et al. 2015), the “effect on tumor growth” value is on record as “therapeutic effect on tumor growth”. The safety of use entry in data set [6] (mouse models of cancer therapy, Palmieri et al. 2017) is given as “safely used in mouse models of cancer therapy”.

The values above are taken from US20200188431A1, “GLUTAMINE DEHYDROGENASE INHIBITORS FOR USE IN MUSCLE REGENERATION” (VIB VZW, priority 2017, published 2020).
